Experimental data reported in patent US9980943B2, “Methods of treating muscular dystrophy” (BOARD OF REGENTS OF THE NEVADA SYSTEM OF HIGHER EDUCATION, …, priority 2013, dated 2018).

What was measured:
Assay type in all cases: cell-based, mouse
[1] = system: β-galactosidase in CMV-LacZ C2C12 myoblasts; test: CMV-LacZ secondary screen in C2C12 myoblasts (β-Gal stabilizing assay); conditions: CMV-LacZ C2C12 myoblasts
Summary of the method: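 A secondary screen identifies compounds that stabilize β-gal independently of the native promoter, using CMV-LacZ C2C12 cells. Curves span 0.5–40 μM at six levels, in duplicate.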

[2] = system: α7 integrin (LacZ reporter in α7βgal+/− myoblasts); test: Myoblast α7+/LacZ integrin FDG assay (Burkin assay in myoblasts, 96-well); conditions: α7+/LacZ myoblasts, 96-well
[3] = system: α7 integrin (LacZ reporter in α7+/LacZ myotubes); test: Myotube α7 integrin FDG assay (Burkin assay in myotubes, 96-well); conditions: myotubes
[4] = system: β-galactosidase in CMV-LacZ C2C12 myotubes; test: CMV-LacZ secondary screen in C2C12 myotubes (β-Gal stabilizing assay); conditions: C2C12 CMV-LacZ myotubes, fold relative to DMSO
Summary of the method: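 β-gal stabilization was measured in C2C12 myoblasts or myotubes stably transfected with a CMV-driven LacZ construct, using the FDG β-gal assay. Compounds were tested in dose-response at 0.5, 1, 5, 10, 20 and 40 μM, with two replicates per point.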

Row | SMILES | CMV-LACZ in Myoblasts (β-galactosidase activity relative to DMSO) ([1]; 0.5 uM) | CMV-LACZ in Myoblasts (β-galactosidase activity relative to DMSO) ([1]; 1 uM) | CMV-LACZ in Myoblasts (β-galactosidase activity relative to DMSO) ([1]; 5 uM) | CMV-LACZ in Myoblasts (β-galactosidase activity relative to DMSO) ([1]; 10 uM) | CMV-LACZ in Myoblasts (β-galactosidase activity relative to DMSO) ([1]; 20 uM) | CMV-LACZ in Myoblasts (β-galactosidase activity relative to DMSO) ([1]; 40 uM) | Burkin Assay in Myoblasts, signal relative to DMSO ([2]; 0.5 uM) | Burkin Assay in Myoblasts, signal relative to DMSO ([2]; 1 uM) | Burkin Assay in Myoblasts, signal relative to DMSO ([2]; 5 uM) | Burkin Assay in Myoblasts, signal relative to DMSO ([2]; 10 uM) | Burkin Assay in Myoblasts, signal relative to DMSO ([2]; 20 uM) | Burkin Assay in Myoblasts, signal relative to DMSO ([2]; 40 uM) | Burkin Assay in Myotubes, α7 integrin LacZ reporter signal relative to DMSO ([3]; 0.5 uM) | Burkin Assay in Myotubes, α7 integrin LacZ reporter signal relative to DMSO ([3]; 1 uM) | Burkin Assay in Myotubes, α7 integrin LacZ reporter signal relative to DMSO ([3]; 5 uM) | Burkin Assay in Myotubes, α7 integrin LacZ reporter signal relative to DMSO ([3]; 10 uM) | Burkin Assay in Myotubes, α7 integrin LacZ reporter signal relative to DMSO ([3]; 20 uM) | Burkin Assay in Myotubes, α7 integrin LacZ reporter signal relative to DMSO ([3]; 40 uM) | CMV-LACZ in Myotubes, signal relative to DMSO ([4]; 0.5 uM) | CMV-LACZ in Myotubes, signal relative to DMSO ([4]; 1 uM) | also measured
1 | COc1ccc(OC)c(S(=O)(=O)Nc2c(NC3CCCCC3)c3ccccc3oc2=O)c1 [MLS001095705-01] | 1.2060 | 1.2293 | 0.6476 | 0.7229 | 1.1400 | 1.1723 | 0.7873 | 0.8788 | 1.295 | 0.969 | 0.7917 | 0.7284 | 0.9916 | 0.9463 | 1.073 | 0.8798 | 0.9411 | 0.7937 | 0.9486 | 0.9933 | CMV-LACZ in Myotubes, signal relative to DMSO ([4]; 5 uM): 1.1898; CMV-LACZ in Myotubes, signal relative to DMSO ([4]; 10 uM): 1.3164; CMV-LACZ in Myotubes, signal relative to DMSO ([4]; 20 uM): 1.2020; CMV-LACZ in Myotubes, signal relative to DMSO ([4]; 40 uM): 1.0800
2 | N/C(=N\OC(=O)c1cccc(C(F)(F)F)c1)c1cnccn1 [MLS001098105-01] | 1.4689 | 0.8054 | 0.9282 | 0.9421 | 1.0381 | 0.8704 | 0.9449 | 1.029 | 0.9936 | 0.974 | 1.075 | 1.135 | 1.052 | 1.053 | 0.916 | 0.8354 | 0.8142 | 0.8459 | 0.9248 | 1.2543 | CMV-LACZ in Myotubes, signal relative to DMSO ([4]; 5 uM): 0.9211; CMV-LACZ in Myotubes, signal relative to DMSO ([4]; 10 uM): 1.3183; CMV-LACZ in Myotubes, signal relative to DMSO ([4]; 20 uM): 0.9671; CMV-LACZ in Myotubes, signal relative to DMSO ([4]; 40 uM): 1.2553
3 | Cn1cc(CN2CCC(C(=O)Nc3cccc(-c4cscn4)c3)CC2)cn1 [MLS001105912-01] | 1.0725 | 1.0321 | 1.0003 | 0.9597 | 0.5323 | 0.3873 | 1.162 | 1.057 | 1.029 | 1.246 | 0.6025 | 0.4631 | 0.9483 | 1.061 | 0.9467 | 1.1322 | 0.8299 | 1.003 | 1.1391 | 0.9618 | CMV-LACZ in Myotubes, signal relative to DMSO ([4]; 5 uM): 0.9313; CMV-LACZ in Myotubes, signal relative to DMSO ([4]; 10 uM): 1.0857; CMV-LACZ in Myotubes, signal relative to DMSO ([4]; 20 uM): 1.1910; CMV-LACZ in Myotubes, signal relative to DMSO ([4]; 40 uM): 1.8130
